Data taken from PubChem BioAssay AID1845194 (Molecular Pharmacology Branch, DTP, NCI, 2023).

Tested on: 287954-098-R-J1 tumor spheroid viability
Experiment: Anticancer human tumor 287954-098-R-J1 patient-derived Ewing sarcoma cell line growth inhibition
Details: spheroids with HUVEC and MSC; for IC50: curve of first compound; for viability, T/C: stronger effect = lower value
Description: Multicellular complex tumor spheroid response to DNA repair inhibitors in combination with DNA-damaging drugs
This study explores the anticancer activities of DNA-damaging drugs and inhibitors of DNA damage repair, both as single agents and in combinations. Complex tumor spheroids comprised of malignant cells, endothelial cells and mesenchymal stem cells served as an in vitro model for human solid tumors. This model system incorporates physiologically relevant features and patient-derived or established malignant cell lines with clinically relevant genetic alterations from many tumor types. Twenty-six patient-derived or established malignant cell lines were evaluated representing sarcoma, melanoma, small cell lung cancer (SCLC), non-small cell lung cancer (NSCLC), as well as bladder, ovarian and pancreatic cancers. The concentration ranges selected for each drug and investigational agent were based upon clinically achievable concentrations if the clinical Cmax of the agent was known.
Compounds. The drugs and compounds olaparib (NSC753686), talazoparib (NSC767125), berzosertib (NSC777718), elimusertib (NSC800525), nedisertib (NSC802822), VX-984 (NSC792969), AZD-1390 (NSC803789), temozolomide (NSC362856), topotecan (NSC609699), trabectedin (NSC813783), staurosporine (NSC755774), and gemcitabine (NSC613327) were obtained from the National Cancer Institute (NCI) Developmental Therapeutics Program Chemical Repository. The FDA-approved anticancer drug set is available from the Developmental Therapeutics Program at https://dtp.cancer.gov/organization/dscb/obtaining/available_plates.htm. […] The stock solutions were prepared in dimethyl sulfoxide (DMSO, Sigma-Aldrich, St. Louis, MO, cat. D2650) at 400-fold the tested concentration and stored at -70 degrees C. Prior to their use, the stock solutions were diluted in fresh medium and the final DMSO concentration in the assay was 0.25% (v/v). All drugs and investigational agents were tested over a range starting from a high concentration at or near the clinical Cmax and decreasing in half-log increments. If the clinical Cmax for an agent had not been determined, the highest concentration tested was 10 microM.
Cell Lines. The patient-derived cancer cell (PDC) lines: 156681-154-R-J1-PDC, 283228-195-R-J1-PDC, 287954-098-R-J1-PDC, 292921-168-R-J2-PDC, 349418-098-R-PDC, 425362-245-T-J1-PDC, 556581-035-R-J1-PDC, and BL0293-F563-PDC were received from the NCI Patient-Derived Models Repository (PDMR, https://pdmr.cancer.gov). The established cell lines HS-SY-2 (RRID:CVCL_8719), MPNST, and SYO-1 (RRID:CVCL_7146) were obtained from the Sloan Kettering Institute. The alveolar soft parts sarcoma cell line ASPS-1 (RRID:CVCL_S738) was established at the NCI and grown from internal seed stocks. The following established cell lines were purchased from the American Type Culture Collection (ATCC, Manassas, VA): G-401 (ATCC, cat. CRL-1441, RRID:CVCL_0270), SW982 (ATCC, cat. HTB-93, RRID:CVCL_1734), VA-ES-BJ (ATCC, cat. CRL-2138, RRID:CVCL_1785), NCI-H719 (ATCC, cat. CRL-5837, RRID:CVCL_1582), NCI-H196 (ATCC, cat. CRL-5823, RRID:CVCL_1509), NCI-H841 (ATCC, cat. CRL-5845, RRID:CVCL_1595), NCI-H1618 (ATCC, cat. CRL-5879, RRID:CVCL_1480), NCI-H1876 (ATCC, cat. CRL-5902, RRID:CVCL_1503), DMS 114 (ATCC, cat. CRL-2066; RRID:CVCL_1174), NCI-H211 (ATCC, cat. CRL-5824; RRID:CVCL_1529), and SW 1271 (ATCC, cat. CRL-2177, RRID:CVCL_1716). The small cell lung cancer cell line COR-L88 was purchased from Sigma-Aldrich (cat. 92031917-1VL, RRID:CVCL_1141). The non-small cell lung cancer cell lines NCI-H226 (RRID:CVCL_1544) and NCI-H322M (RRID:CVCL_1557) were established at the NCI and grown from internal seed stocks. Pooled donor human umbilical vein endothelial cells (HUVEC, Lonza, cat. CC-2519) and human mesenchymal stem cells (hMSC, Lonza, cat. PT-2501) were purchased from Lonza (Walkersville, MD).
Cell Culture. All cells were maintained in an incubator at 37 degrees C and 5% CO2 with 95% humidity. […]
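Also: spheroids exposed to compound for 7 days before viability readout.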
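For viability, T/C in this document: luminescent signal taken as surrogate of viable cell content; 100% = DMSO vehicle control viability and lower means growth inhibition.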

Structure (SMILES): CC1COCCN1c1cc(-c2ccnn2C)c2ccnc(-c3ccn[nH]3)c2n1 (stereo not given) + CC[C@@]1(O)C(=O)OCc2c1cc1n(c2=O)Cc2cc3c(CN(C)C)c(O)ccc3nc2-1
- IC50 (second compound 0.003 µM): 45.5 nM
- IC50 (second compound 0.00949 µM): < 31.6 nM
- IC50 (second compound 0.03 µM): < 31.6 nM
- IC50 (second compound 0.0949 µM): < 31.6 nM
- IC50 (second compound 0.3 µM): < 31.6 nM
- viability, T/C (second compound 0.003 µM, first compound 0.0316 µM): 66.4%
- viability, T/C (second compound 0.003 µM, first compound 0.1 µM): 14.3%
- viability, T/C (second compound 0.003 µM, first compound 0.316 µM): 7.1%
- viability, T/C (second compound 0.003 µM, first compound 1 µM): 2.65%
- viability, T/C (second compound 0.003 µM, first compound 3.16 µM): 1.92%
- viability, T/C (second compound 0.003 µM, first compound 10 µM): 2.07%
- viability, T/C (second compound 0.00949 µM, first compound 0.0316 µM): 3.62%
- viability, T/C (second compound 0.00949 µM, first compound 0.1 µM): 1.68%
- viability, T/C (second compound 0.00949 µM, first compound 0.316 µM): 2.2%
- viability, T/C (second compound 0.00949 µM, first compound 1 µM): 1.74%
- viability, T/C (second compound 0.00949 µM, first compound 3.16 µM): 1.4%
- viability, T/C (second compound 0.00949 µM, first compound 10 µM): 2%
- viability, T/C (second compound 0.03 µM, first compound 0.0316 µM): 1.73%
- viability, T/C (second compound 0.03 µM, first compound 0.1 µM): 1.36%
- viability, T/C (second compound 0.03 µM, first compound 0.316 µM): 1.38%
- viability, T/C (second compound 0.03 µM, first compound 1 µM): 0.71%
- viability, T/C (second compound 0.03 µM, first compound 3.16 µM): 1.17%
- viability, T/C (second compound 0.03 µM, first compound 10 µM): 1.55%
- viability, T/C (second compound 0.0949 µM, first compound 0.0316 µM): 1.53%
- viability, T/C (second compound 0.0949 µM, first compound 0.1 µM): 1.31%
- viability, T/C (second compound 0.0949 µM, first compound 0.316 µM): 1.28%
- viability, T/C (second compound 0.0949 µM, first compound 1 µM): 0.9%
- viability, T/C (second compound 0.0949 µM, first compound 3.16 µM): 0.77%
- viability, T/C (second compound 0.0949 µM, first compound 10 µM): 1.08%
- viability, T/C (second compound 0.3 µM, first compound 0.0316 µM): 1.62%
- viability, T/C (second compound 0.3 µM, first compound 0.1 µM): 1.43%
- viability, T/C (second compound 0.3 µM, first compound 0.316 µM): 1.23%
- viability, T/C (second compound 0.3 µM, first compound 1 µM): 0.85%
- viability, T/C (second compound 0.3 µM, first compound 3.16 µM): 0.69%
- viability, T/C (second compound 0.3 µM, first compound 10 µM): 0.67%
